Source: patent US9676714B2, “Sulfonylindole derivatives and method for preparing the same” (Daewoong Pharmaceutical Co., Ltd., priority 2013, dated 2017)
Where a name gives a salt, the structure may show the parent alone.

target: T1, proton pump (H+/K+-ATPase) (Sus scrofa, UniProt P19156); assay: Measurement of inhibitory effects on proton pump (H+/K+-ATPase) activities; assay type: biochemical; conditions: hog gastric vesicles, K+-specific H+/K+-ATPase activity, Tris-HCl buffer pH 7.4, 37° C. for 40 minutes, malachite green Pi readout
T1 construct: Gastric vesicles were prepared from hog stomach via centrifugal separation; from tissue; host or cells: hog stomach (gastric vesicles, method of Rabon et al. 1988)
Protocol: 1) Preparation of Gastric Vesicles
Gastric vesicles were prepared from hog stomach via centrifugal separation (Edd C. Rabon et al., Preparation of Gastric H^+,K^+-ATPase, Methods in enzymology, vol. 157 Academic Press Inc., (1988), pp. 649-654). The protein contents of the thus prepared gastric vesicles were quantitated by Bicinchoninic Acid (BCA) kit.
2) Measurement of Inhibitory Effects on Proton Pump (H^+/K^+-ATPase) Activities
The inhibitory effects of the compounds of the present invention against proton pump activities were measured using a 96-well plate. In this assay, the K^+-specific H^+/K^+-ATPase activities were calculated based on the difference between the H^+/K^+-ATPase activity in the presence of K^+ and that in the absence of K. In the 96-well plate, 0.5% dimethyl sulfoxide (DMSO) in buffer was added to the negative and positive control groups, and the diluted compounds of the present invention were added to the test groups. All assays were performed in a reaction volume of 100 μl at room temperature. The reaction buffer solution (60 mmol/l Tris-HCl buffer, pH 7.4) including the hog gastric vesicles was added with DMSO and the compounds at various concentrations, and then further added with 10 μl of 10 mmol/1 adenosine triphosphate Tris buffer solution (60 mmol/l Tris-HCl buffer, pH 7.4) to initiate an enzyme reaction. […] The amount of monophosphate (Pi) in the reaction was measured at 570 nm using a micro plate reader (FLUOstar Omega, BMG LABTECH). The inhibition rates (%) were determined from the activity values of control groups and those of test compounds at various concentrations, and the […] of the test compounds were calculated based on the respective inhibition value (%) using the Logistic 4-parameter function of Sigmaplot 8.0 program.

T1 sequence (P19156 whole entry): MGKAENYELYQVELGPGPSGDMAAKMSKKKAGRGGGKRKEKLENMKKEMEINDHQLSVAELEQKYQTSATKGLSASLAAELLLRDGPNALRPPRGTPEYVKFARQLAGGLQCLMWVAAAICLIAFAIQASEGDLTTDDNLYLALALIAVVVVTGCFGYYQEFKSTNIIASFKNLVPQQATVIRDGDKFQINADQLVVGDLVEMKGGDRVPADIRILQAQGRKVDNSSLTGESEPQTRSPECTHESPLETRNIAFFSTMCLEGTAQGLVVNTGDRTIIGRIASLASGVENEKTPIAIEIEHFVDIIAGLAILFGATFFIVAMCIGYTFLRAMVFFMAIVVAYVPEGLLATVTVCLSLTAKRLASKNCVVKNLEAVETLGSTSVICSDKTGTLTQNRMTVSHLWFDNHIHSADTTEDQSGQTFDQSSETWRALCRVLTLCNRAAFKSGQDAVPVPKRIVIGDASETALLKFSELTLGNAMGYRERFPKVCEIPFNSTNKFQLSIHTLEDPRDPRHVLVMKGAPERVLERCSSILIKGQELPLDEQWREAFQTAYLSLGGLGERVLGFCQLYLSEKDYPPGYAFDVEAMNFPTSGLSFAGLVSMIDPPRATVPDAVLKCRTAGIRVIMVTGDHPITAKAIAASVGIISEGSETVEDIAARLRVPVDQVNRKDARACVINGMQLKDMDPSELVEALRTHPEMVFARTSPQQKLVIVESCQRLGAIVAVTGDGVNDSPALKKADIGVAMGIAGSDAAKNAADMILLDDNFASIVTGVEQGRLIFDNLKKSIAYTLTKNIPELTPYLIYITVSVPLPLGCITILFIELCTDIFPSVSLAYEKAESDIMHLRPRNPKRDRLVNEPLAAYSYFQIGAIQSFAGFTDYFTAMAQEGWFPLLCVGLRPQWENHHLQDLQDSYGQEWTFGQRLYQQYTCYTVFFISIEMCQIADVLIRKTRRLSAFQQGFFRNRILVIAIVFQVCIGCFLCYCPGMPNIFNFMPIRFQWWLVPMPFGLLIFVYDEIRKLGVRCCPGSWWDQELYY
T1 sequence (P18434 whole entry partner): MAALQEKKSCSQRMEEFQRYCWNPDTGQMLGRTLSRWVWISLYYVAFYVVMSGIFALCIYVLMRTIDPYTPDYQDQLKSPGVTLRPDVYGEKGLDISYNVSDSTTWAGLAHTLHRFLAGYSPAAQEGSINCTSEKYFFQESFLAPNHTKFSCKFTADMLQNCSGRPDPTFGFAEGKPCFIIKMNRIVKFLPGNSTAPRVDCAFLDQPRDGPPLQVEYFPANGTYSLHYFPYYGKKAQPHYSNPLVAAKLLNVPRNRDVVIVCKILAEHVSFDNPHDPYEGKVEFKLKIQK

Compound	IC50 [µM]
COC(=O)c1cn(S(=O)(=O)c2ccc(Cl)nc2)c2cc(-c3ccc(F)nc3)ccc12 [Example 337, methyl 1-((6-chloropyridin-3-yl)sulfonyl)-6-(6-fluoropyridin-3-yl)-1H-indol-3-carboxylate]	3.15
CNCc1cn(S(=O)(=O)c2cccc(OC)c2)c2cc(Nc3ccc(C)c(F)c3F)ccc12 [Example 170, N-(2,3-difluoro-4-methylphenyl)-1-((3-methoxyphenyl)sulfonyl)-3-((methylamino)methyl)-1H-indol-6-amine hydrochloride]	0.26
CNCc1cn(S(=O)(=O)c2cccc(OC)c2)c2cc(Cc3ccc(OC)nc3Cl)ccc12 [Example 295, 1-(6-((2-chloro-6-methoxypyridin-3-yl)methyl)-1-((3-methoxyphenyl)sulfonyl)-1H-indol-3-yl)-N-methylmethanamine]	0.92
CNCc1cn(S(=O)(=O)c2ccc(Cl)cc2Cl)c2cc(Nc3ccc(C)cc3F)ccc12 [Example 235, 1-((2,4-dichlorophenyl)sulfonyl)-N-(2-fluoro-4-methylphenyl)-3-((methylamino)methyl)-1H-indol-6-amine hydrochloride]	2.89
CNCc1cn(S(=O)(=O)c2cccnc2)c2cc(Nc3ccc(Cl)cc3C)cnc12 [Example 348, N-(4-chloro-2-methylphenyl)-3-((methylamino)methyl)-1-(pyridin-3-ylsulfonyl)-1H-pyrrolo[3,2-b]pyridin-6-amine hydrochloride]	0.2
CNCc1cn(S(=O)(=O)c2cccnc2)c2cc(Nc3ccc(C(F)(F)F)cc3C(F)(F)F)ccc12 [Example 35, N-(2,4-Bis(trifluoromethyl)phenyl)-3-((methylamino)methyl)-1-(pyridin-3-ylsulfonyl)-1H-indol-6-amine hydrochloride]	1.63
CNCc1cn(S(=O)(=O)c2cccnc2)c2cc(Nc3ccc(OC)c(F)c3F)ccc12 [Example 70, N-(2,3-difluoro-4-methoxyphenyl)-3-((methylamino)methyl)-1-(pyridin-3-ylsulfonyl)-1H-indol-6-amine hydrochloride]	0.3
CNCc1cn(S(=O)(=O)c2cccnc2)c2cc(Nc3ccc(C(=O)OC)cc3Cl)ccc12 [Example 57, methyl 3-chloro-4-((3-((methylamino)methyl)-1-(pyridin-3-ylsulfonyl)-1H-indol-6-yl)amino)benzoate hydrochloride]	0.43
COc1ccc(Nc2ccc3c(C(=O)N(C)C)cn(S(=O)(=O)c4cccc(C(F)(F)F)c4)c3c2)c(Cl)n1 [Example 321, 6-((2-chloro-6-methoxypyridin-3-yl)amino)-N,N-dimethyl-1-((3-(trifluoromethyl)phenyl)sulfonyl)-1H-indol-3-carboxamide]	3.35
CNCc1cn(S(=O)(=O)c2ccc(C(C)(C)C)cc2)c2cc(Nc3ccc(C)cc3F)ccc12 [Example 231, 1-((4-(tert-butyl)phenyl)sulfonyl)-N-(2-fluoro-4-methylphenyl)-3-((methylamino)methyl)-1H-indol-6-amine hydrochloride]	2.62
CNCc1cn(S(=O)(=O)c2cccc(C(F)(F)F)c2)c2cc(Nc3ccc(C(F)(F)F)nc3Cl)ccc12 [Example 195, N-(2-chloro-6-(trifluoromethyl)pyridin-3-yl)-3-((methylamino)methyl)-1-((3-(trifluoromethyl)phenyl)sulfonyl)-1H-indol-6-amine hydrochloride]	1.27
CNCc1cn(S(=O)(=O)c2cccnc2)c2cc(Nc3ncccc3Br)ccc12 [Example 102, N-(3-bromopyridin-2-yl)-3-((methylamino)methyl)-1-(pyridin-3-ylsulfonyl)-1H-indol-6-amine hydrochloride]	2.52
CNCc1cn(S(=O)(=O)c2cccnc2)c2cc(Nc3c(F)cc(Br)cc3Br)ccc12 [Example 93, N-(2,4-dibromo-6-fluorophenyl)-3-((methylamino)methyl)-1-(pyridin-3-ylsulfonyl)-1H-indol-6-amine hydrochloride]	2.22
CNCc1cn(S(=O)(=O)c2cccc(OC(F)F)c2)c2cc(Nc3ccc(OC(F)(F)F)cc3C)ccc12 [Example 179, 1-((3-(difluoromethoxy)phenyl)sulfonyl)-N-(2-methyl-4-(trifluoromethoxy)phenyl)-3-((methylamino)methyl)-1H-indol-6-amine hydrochloride]	0.33
CNCc1cn(S(=O)(=O)c2cccnc2)c2cc(Nc3ccc([N+](=O)[O-])cc3C)ccc12 [Example 42, N-(2-methyl-4-nitrophenyl)-3-((methylamino)methyl)-1-(pyridin-3-ylsulfonyl)-1H-indol-6-amine hydrochloride]	0.34
CNCc1cn(S(=O)(=O)c2cccnc2)c2cc(Nc3cc(F)c(F)cc3F)ccc12 [Example 74, 3-((methylamino)methyl)-1-(pyridin-3-ylsulfonyl)-N-(2,4,5-trifluorophenyl)-1H-indol-6-amine hydrochloride]	0.45
Cc1ccc(Nc2ccc3c(C(=O)N(C)C)cn(S(=O)(=O)c4cccnc4)c3c2)c(F)c1 [Example 322, 6-((2-fluoro-4-methylphenyl)amino)-N,N-dimethyl-1-(pyridin-3-ylsulfonyl)-1H-indol-3-carboxamide]	24
CNCc1cn(S(=O)(=O)c2cccc(OC)c2)c2cc(Cc3ccc(C)c(F)c3F)ccc12 [Example 289, 1-(6-(2,3-difluoro-4-methylbenzyl)-1-((3-methoxyphenyl)sulfonyl)-1H-indol-3-yl)-N-methylmethanamine]	0.78
CNCc1cn(S(=O)(=O)c2cccnc2)c2cc(Nc3cc(C)c(Cl)cc3C)ccc12 [Example 75, N-(4-chloro-2,5-dimethylphenyl)-3-((methylamino)methyl)-1-(pyridin-3-ylsulfonyl)-1H-indol-6-amine hydrochloride]	0.29
CNCc1cn(S(=O)(=O)c2cccc(OC(F)F)c2)c2cc(-c3cncnc3)ccc12 [Example 264, 1-(1-((3-(difluoromethoxy)phenyl)sulfonyl)-6-(pyrimidin-5-yl)-1H-indol-3-yl)-N-methylmethanamine hydrochloride]	20
CNCc1cn(S(=O)(=O)c2cccnc2)c2cc(Nc3c(C)cc(F)cc3C)ccc12 [Example 81, N-(4-fluoro-2,6-dimethylphenyl)-3-((methylamino)methyl)-1-(pyridin-3-ylsulfonyl)-1H-indol-6-amine hydrochloride]	0.31
CNCc1cn(S(=O)(=O)c2cccnc2)c2cc(Nc3ccc(C(C)(C)C)cc3)ccc12 [Example 14, N-(4-(tert-butyl)phenyl)-3-((methylamino)methyl)-1-(pyridin-3-ylsulfonyl)-1H-indol-6-amine hydrochloride]	1.5
CNCc1cn(S(=O)(=O)c2cccnc2)c2cc(Nc3ccc(C)nc3F)ccc12 [Example 112, N-(2-fluoro-6-methylpyridin-3-yl)-3-((methylamino)methyl)-1-(pyridin-3-ylsulfonyl)-1H-indol-6-amine hydrochloride]	0.95
CNCc1cn(S(=O)(=O)c2cccc(OC(F)(F)F)c2)c2cc(Cc3ccc(C)cc3Cl)ccc12 [Example 305, 1-(6-(2-chloro-4-methylbenzyl)-1-((3-(trifluoromethoxy)phenyl)sulfonyl)-1H-indol-3-yl)-N-methylmethanamine]	0.61
Cc1cc(OC(F)(F)F)ccc1Nc1ccc2c(C(=O)N(C)C)cn(S(=O)(=O)c3cccnc3)c2c1 [Example 326, N,N-dimethyl-6-((2-methyl-4-(trifluoromethoxy)phenyl)amino)-1-(pyridin-3-ylsulfonyl)-1H-indol-3-carboxamide]	37
CNCc1cn(S(=O)(=O)c2cccnc2)c2cc(Nc3ccncc3Cl)ccc12 [Example 128, N-(3-chloropyridin-4-yl)-3-((methylamino)methyl)-1-(pyridin-3-ylsulfonyl)-1H-indol-6-amine hydrochloride]	1.22
CNCc1cn(S(=O)(=O)c2cccc(F)c2)c2cc(Nc3ccc(F)cc3C)ncc12 [Example 354, N-(4-fluoro-2-methylphenyl)-1-((3-fluorophenyl)sulfonyl)-3-((methylamino)methyl)-1H-pyrrolo[3,2-c]pyridin-6-amine hydrochloride]	0.8
CNCc1cn(S(=O)(=O)c2cccnc2)c2cc(Nc3ncccc3F)ccc12 [Example 99, N-(3-fluoropyridin-2-yl)-3-((methylamino)methyl)-1-(pyridin-3-ylsulfonyl)-1H-indol-6-amine hydrochloride]	1.38
CNCc1cn(S(=O)(=O)c2cccnc2)c2cc(Nc3ccc(C#N)cc3Cl)ccc12 [Example 39, 3-chloro-4-((3-((methylamino)methyl)-1-(pyridin-3-ylsulfonyl)-1H-indol-6-yl)amino)benzonitrile hydrochloride]	0.13
COC(=O)c1cn(S(=O)(=O)c2cccnc2)c2cc(-c3ccc(F)nc3)ccc12 [Example 336, methyl 6-(6-fluoropyridin-3-yl)-1-(pyridin-3-ylsulfonyl)-1H-indol-3-carboxylate]	2.7
